# Experimental data from patent US20230348394A1, “COMPOSITIONS AND METHODS FOR TREATING MUSCULAR DYSTROPHIES” (The Regents of the University of California, priority 2020, published 2023).
# Counter-ions that a name gives are not always drawn.
# Legend:
# [1] = test system: SSPN-HiBiT protein (sarcospan); assay: C2C12 SSPN-HiBiT protein reporter assay (12-well and 384-well format); assay type: cell-based, murine; conditions: for SSPN-HiBiT, fold change over vehicle: *p<0.05
# Description: C2C12 SSPN-HiBiT myoblasts were seeded at 25,000 cells per well in 2 ml of growth media in 12 well-plates and incubated for 3 days. Upon reaching confluency, the growth media was replaced with 2 ml of differentiation media. At day 2 of differentiation, the media on the cells was replaced with 2 ml of differentiation media containing compounds at a final concentration of 5.5 μM in 0.06% DMSO. For vehicle control-treated cells, 0.06% DMSO was added to the cells. After 48 hrs the cells were washed with PBS and frozen for 2-24 hrs. The plates containing cells were thawed on ice and 100 μl of ice-cold modified RIPA buffer containing 1% Triton X-100, 0.05% DOC, 0.05% SDS, and Halt Protease Inhibitor was added to each well. Cells were scratched, transferred into 1.5 ml tubes, and centrifuged for 20 min at 16,000×g at 4° C. The cell lysates were transferred into new tubes. DC assay was performed on cell lysates to determine protein concentration. White walled, white bottom 384-well microplates (Greiner) were prefilled with 15 μl of PBS and 15 μl of cell lysates were added to each well in triplicate. Then 30 μl Nano-Glo HiBiT Lytic Detection working solution was added to each well and incubated for 30 min at RT with shaking. The luminescence was measured on the EnVision plate reader and the signal was normalized to protein concentration and signal from vehicle-treated controls.
# C2C12 SSPN-HiBiT myoblasts were seeded at 500 cells per well in 50 μl of growth media in 384-well white, clear bottom microplates (Greiner) and incubated for 3 days. Upon reaching confluency, the growth media was replaced with 50 μl of differentiation media consisting of phenol-red free DMEM with 2% horse serum (Sigma-Aldrich) using an EL406 combination washer dispenser (Biotek). At day 2 of differentiation, the media on the cells was aspirated, left with a residual volume of 10 μl, and replaced with 30 μl of fresh differentiation media. 0.5 μl of small molecule in DMSO or DMSO alone (for vehicle and positive control wells) were added to each well using a Biomek Fx (Beckman). To ensure proper mixing of the DMSO, 50 μl of additional differentiation media was added to all wells except the positive control treated wells. The final concentration of compound in each treated well was 0.5-10 μM in 0.55% DMSO and 0.55% DMSO only for vehicle. After 48 hrs of incubation, the plate was washed with phenol red-free DMEM, aspirated, and left with a residual volume of 5 μl using EL406 combination washer dispenser. After the wash, 25 μl of differentiation media containing 12 μM DRAQ5 nuclear stain was added to reach a final concentration 10 μM in each well and incubated for 15 min at 37° C. with 5% CO2. The cells were imaged using ImageXpress Micro Confocal High Content Imaging System (Molecular Devices). The nuclei count of imaged cells were determined using a custom module analysis in MetaXpress Analysis software (Molecular Devices). After imaging and analysis, the plate was aspirated, left with a residual volume of 5 μl and placed at −80° C. for 2-24 hrs. The plate was thawed at RT and 25 μl of PBS was added, followed by 30 μl of Nano-Glo HiBiT Lytic Detection working solution prepared according manufacturer recommendations. Luminescence was measured using the EnVision plate reader and the signal of each well was normalized to nuclei count and signal from vehicle-treated controls.
# In order to effectively test new analogues, we created method for detecting SSPN protein in cells, e.g., SSPN-HiBiT. SSPN-HiBiT based on a murine C2C12 cell line expressing endogenous SSPN protein with an N-term fusion protein called the HiBiT, an 11 amino acid subunit of a luciferase enzyme (FIG. 10a). The SSPN-HiBiT protein is quantified through addition of substrate and a larger subunit of the luciferase enzyme to catalyze the formation of luminescent signal. […]
# SSPN gene expression = SSPN gene expression in tibialis anterior after intramuscular injection in mdx mice; assay type: in vivo; conditions: 4 hours
# Description: (§1) For the preliminary safety assessment of OT-9, we performed IP injections in 6 month old C57/B16 males. The mice were injected with 100 μl of vehicle (5% DMSO (Sigma), 95% PBS), 100 μl of 30 mg/kg of OT-9 in vehicle, or 100 μl of 50 mg/kg of OT-9 in vehicle (n=1 mouse per treatment). […] For assessment of activity, 20-weeks old male mdx littermates were injected in both tibialis anterior muscles with vehicle (5% DMSO, 95% PBS) or 86 μg of OT-9. Two mice were injected in both TAs with vehicle and three mice were injected in both TAs with 200 of OT-9 (9.4 mM solution containing 86 μg of OT-9). After 4 hours, the muscles were harvested and processed for gene expression analysis. For assessment of activity of OT-9m after local administration, 19-22-weeks old mdx males were injected in both tibialis anterior muscles with vehicle (5% DMSO, 95% PBS) or 3 mg/kg and 10 mg/kg of OT-9m. After 4 hours, the muscles were harvested and processed for gene expression analysis. For assessment of activity of OT-9m after systemic administration, 13-weeks old mdx males were injected subcutaneously with vehicle (4% PEG-200 in hydroxypropyl-b-cyclodextrin) or 20 mg/kg/day of OT-9m. After 13 days of treatment, the muscles were harvested and processed for gene expression analysis.
# After the preliminary safety evaluation, we tested the ability of OT-9 to increase SSPN gene expression in vivo. […] Five 20-weeks old male mdx littermates were subjected to intramuscular injections in both tibialis anterior (TA) muscles. Two mice were injected in both TAs with vehicle and […] were injected with 3 mg/kg of OT-9 (molar equivalent of 9.4 mM used in the safety assessment). After 4 hours of treatment, the TAs were harvested and processed for gene expression analysis. […] After determination that OT-9 is capable of increasing SSPN gene expression in vivo, we evaluated one of its derivatives, OT-9m, for its ability to increase SSPN expression in mdx mice. OT-9m was chosen based on its improved activity in vitro compared to OT-9 (compare, Table 1, entries 1 & 14). To assess activity OT-9m in vivo after local administration, eleven 19-22 weeks old male mdx mice were subjected to intramuscular injections in both tibialis anterior (TA) muscles. Four mice were injected in both TAs with vehicle, three mice were injected with 3 mg/kg of OT-9m and four mice were injected with 10 mg/kg of OT-9m. After 4 hours of treatment, the TAs were harvested and processed for gene expression analysis.
# SSPN transcript = assay: SSPN gene expression after systemic (subcutaneous) treatment of mdx mice; assay type: in vivo; conditions: 20 mg/kg daily subcutaneous, 13 days, quadriceps
# Description: as §1, with “For assessment of activity of OT-9m after systemic administration, 13-weeks old mdx males were injected subcutaneously with vehicle (4% PEG-200 in hydroxypropyl-b-cyclodextrin) or 20 mg/kg/day of OT-9m. After 13 days of treatment, the muscles were harvested and processed for gene expression analysis.” left out
# Followed by local administration, we evaluated ability of OT-9m to enhance SSPN expression in mdx mice after systemic treatment. […] We determined that mice overexpressing sarcospan by 1.5-fold were not rescued, while mice overexpressing sarcospan by 3-fold were rescued.
smiles,measurement,setting,value
COc1ccc2nc(C)c(C(=O)Nc3ccc(C(=O)N4CCCOCC4)cc3)cc2c1,"SSPN-HiBiT, fold change over vehicle",[1]; Table 1,1.22* fold change over vehicle
"Cc1cc(C)c(C#N)c(OCC(=O)c2ccc(N(C)C)cc2)n1 [2-(2-(4-(dimethylamino)phenyl)-2-oxoethoxy)-4,6-dimethylnicotinonitrile]","SSPN-HiBiT, fold change over vehicle",[1]; Table 2,1.09* fold change over vehicle
"Cc1cc2cc(C#N)c(SCC(=O)c3ccc(F)cc3)nc2cc1C [2-((2-(4-fluorophenyl)-2-oxoethyl)thio)-6,7-dimethylquinoline-3-carbonitrile]","SSPN-HiBiT, fold change over vehicle",[1]; Table 2,1.48* fold change over vehicle
CCN(CC)c1ccc2cc(C(=O)Nc3ccc(C(=O)N4CCN(C)CC4)cc3)cnc2c1,"SSPN-HiBiT, fold change over vehicle",[1]; Table 1,1.47* fold change over vehicle
"CCN(CC)C(=O)c1ccc(NC(=O)c2cc3ccc(F)cc3[nH]c2=O)cc1 [N-(4-(diethylcarbamoyl)phenyl)-7-fluoro-2-oxo-1,2-dihydroquinoline-3-carboxamide]","SSPN-HiBiT, fold change over vehicle",[1]; Table 1,1.45* fold change over vehicle
CCN(CC)c1ccc2cc(C(=O)Nc3ccc(C(=O)N4CCCOCC4)cc3)cnc2c1,"SSPN-HiBiT, fold change over vehicle",[1]; Table 1,1.3* fold change over vehicle
COc1ccc2c(c1)CC(C(=O)Nc1ccc(C(=O)N3CCN(C)CC3)cc1)C(=O)N2 (stereo not drawn),"SSPN-HiBiT, fold change over vehicle",[1]; Table 1,1.46* fold change over vehicle
COc1ccc2nc(C)c(C(=O)Nc3ccc(C(=O)N4CCCCCC4)cc3)cc2c1 [N-(4-(azepane-1-carbonyl)phenyl)-6-methoxy-2-methylquinoline-3-carboxamide],"SSPN-HiBiT, fold change over vehicle",[1]; Table 1,1.4* fold change over vehicle
"Nc1ccc2ncc(C(=O)Nc3ccc(C(=O)N4CCCOCC4)cc3)cc2c1 [N-(4-(1,4-oxazepane-4-carbonyl)phenyl)-6-aminoquinoline-3-carboxamide hydrochloride]","SSPN-HiBiT, fold change over vehicle",[1]; Table 1,1.09* fold change over vehicle
Cc1cc2cc(C#N)c(S(=O)(=O)CC(=O)c3ccc(F)cc3)nc2cc1C,"SSPN-HiBiT, fold change over vehicle",[1]; Table 2,1.23* fold change over vehicle
Cc1cc2cc(C#N)c(OCC(=O)c3ccc(F)cc3F)nc2cc1C,"SSPN-HiBiT, fold change over vehicle",[1]; Table 2,1.22* fold change over vehicle
Cc1cc2cc(C#N)c(OCC(=O)c3ccc(O)cc3)nc2cc1C,"SSPN-HiBiT, fold change over vehicle",[1]; Table 2,1.21 fold change over vehicle
COc1ccc2[nH]c(=O)c(C(=O)Nc3ccc(C(=O)N4CCCCCC4)cc3)cc2c1,"SSPN-HiBiT, fold change over vehicle",[1]; Table 1,1.03 fold change over vehicle
COc1ccc(C(=O)COc2nc3cc(C)c(C)cc3cc2C#N)cc1,"SSPN-HiBiT, fold change over vehicle",[1]; Table 2,1.27* fold change over vehicle
"COc1ccc2[nH]c(=O)c(C(=O)Nc3ccc(C(=O)N4CCCOCC4)cc3)cc2c1 [OT-9m, N-(4-(1,4-oxazepane-4-carbonyl)phenyl)-6-methoxy-2-oxo-1,2-dihydroquinoline-3-carboxamide]","SSPN-HiBiT, fold change over vehicle",[1]; Table 1,2.4* fold change over vehicle
same,SSPN gene expression in tibialis anterior,SSPN gene expression; 3 mg/kg and 10 mg/kg intramuscular,increased SSPN gene expression
same,adverse effects after local injection,"SSPN gene expression; OT-9m 3 mg/kg and 10 mg/kg intramuscular, both TA",No adverse effects
same,increase of SSPN transcript,SSPN transcript,2 fold
CCN(CC)C(=O)c1ccc(NC(=O)c2cc3cc(OC)ccc3[nH]c2=O)cc1,"SSPN-HiBiT, fold change over vehicle",[1]; Table 1,1.51* fold change over vehicle
CCN(CC)C(=O)c1ccc(NC(=O)c2cnc3cc(N(CC)CC)ccc3c2)cc1,"SSPN-HiBiT, fold change over vehicle",[1]; Table 1,1.75* fold change over vehicle
"Cc1cc(C)c2nc(OCC(=O)c3ccc(N(C)C)cc3)c(C#N)cc2c1 [2-(2-(4-(dimethylamino)phenyl)-2-oxoethoxy)-6,8-dimethylquinoline-3-carbonitrile]","SSPN-HiBiT, fold change over vehicle",[1]; Table 2,1.3* fold change over vehicle
CCN(CC)c1ccc2cc(C(=O)Nc3nnc(C(=O)N4CCOCC4)[nH]3)cnc2c1,"SSPN-HiBiT, fold change over vehicle",[1]; Table 1,1.34* fold change over vehicle
"CCN(CC)C(=O)c1ccc(NC(=O)c2c(C)c3ccccc3[nH]c2=O)cc1 [N-(4-(diethylcarbamoyl)phenyl)-4-methyl-2-oxo-1,2-dihydroquinoline-3-carboxamide]","SSPN-HiBiT, fold change over vehicle",[1]; Table 1,1.21* fold change over vehicle
"O=C1Nc2ccc(I)cc2/C1=C/c1cc(Br)c(O)c(Br)c1 [GW5074, reference compound]",increase in SSPN-HiBiT levels,"[1]; SSPN-HiBiT C2C12 myotubes, 5 μM",1.35 fold
CCN(CC)C(=O)c1ccc(NC(=O)c2cc3ccccc3nc2C)cc1 [N-(4-(diethylcarbamoyl)phenyl)-2-methylquinoline-3-carboxamide],"SSPN-HiBiT, fold change over vehicle",[1]; Table 1,1.08* fold change over vehicle
"Cc1cc2cc(C#N)c(OCC(=O)c3ccc(N(C)C)cc3)nc2cc1C [2-(2-(4-(dimethylamino)phenyl)-2-oxoethoxy)-6,7-dimethylquinoline-3-carbonitrile]","SSPN-HiBiT, fold change over vehicle",[1]; Table 2,1.04* fold change over vehicle
CCN(CC)c1ccc2cc(C(=O)Nc3ccc(C(=O)N4CCCCCC4)cc3)cnc2c1,"SSPN-HiBiT, fold change over vehicle",[1]; Table 1,1.62* fold change over vehicle
